Results as given in patent publication US10717946B2, “Water soluble essential oils and their use” (KIMBERLY-CLARK WORLDWIDE, INC., priority 2012, dated 2020).
Where two headings read alike, the source gives them in different places.

Test system: C. albicans SC5314
Format: cell-based, Candida albicans
Description: Based on the results in FIG. 3, single cell suspensions of SC5314 was prepared as follows. Stock culture of C. albicans SC5314 was streaked onto YPD agar (YPDA) and incubated at 30° C. overnight. Single colonies were subcultured in YPD broth (YPDB) and incubated at 30° C., 200 rpm overnight. Overnight culture in YPDB was subcultured in YPD broth again and incubated at 30° C., 200 rpm 48 h. Cells were collected by centrifugation (4000 g 10 min) at 4° C., washed three times with sterile water, and then resuspended in sterile water at a final concentration of 10^9 colony-forming unit/ml (cfu/ml). The suspension was stored at 4° C. at least 1 d, then subcultured into YPDB to a final concentration of 10^6 cfu/ml. After 48 h incubation, cell suspension was examined under the microscope for single cell percentage. When the single cell percentage exceeded 80%, cells were collected and washed three times with water, then resuspended in water to a final concentration of 10^9 cfu/ml, and stored at 4° C. for no more than a month.
Two approaches were taken to determine the percentage of cells with germ tubes formed (GTF %). One way was to count the total cells at the start of incubation, and count the ungerminated cells after incubation, then calculate the GTF % as (1−ungerminated cells/total cells at 0 h)*100. Another way was to store the samples at 15° C. for 20 h after incubation, then count the germinated cells and total cells after disaggregation, then calculated the GTF % as (germinated cells/total cells after storage)*100. […] Therefore, for practical purposes, the GTF % was determined by the first method, that is, GTF %=(1−ungerminated cells/total cells at 0 h)*100, for the in vitro screening discussed herein.
A screening medium, containing 11 mM imidazole buffer, 3 m MMgSO4, and 2.6 mM N-acetyl-D-glucosamine (GlcNAc) has been used to study the effect of farnesol analogs on the germ tube formation of C. albicans. Here, the germ tube formation of C. albicans in modified screening media was assessed with various concentrations of imidazole buffer (10 mM, 30 mM, and 50 mM) and MgSO4 (0.5 mM, 1.5 mM, and 3 mM). […] It took 2 h to 3 h for the GTF % to reach above 80%. For practical purposes, the screening medium, containing 11 mM imidazole buffer, 0.5 m MMgSO4, and 2.6 mM N-acetyl-D-glucosamine (GlcNAc) was adopted for in vitro screening the quorum sensing inhibitory effect of farnesol compounds and botanicals. […]

Compound: C=CCCCCCCCC [1-Decene]
- GTF %control-GTF %sample (mean ± SD, n = 3) (0.1%): 0%
- GTF %control-GTF %sample (mean ± SD, n = 3) (0.2%): 35.2 ± 5.2 %

Compound: Cc1ccc(C(C)C)c(O)c1 [Thymol]
- GTF % (mean ± SEM, n = 3) (1 mM): 43.7 ± 5.2%

Compound: CC(C)=CCCC(C)=CCCC(C)=CCO [farnesol]
- GTF %control-GTF %sample (mean ± SD, n = 3) ((0.0022%)): 25.0 ± 4.1%
